Tests used:
DPPIV [1] = target: T1, DPPIV (Homo sapiens, UniProt P27487); details: longer time points
Procedure: The formulations described in Example 4 are placed in constant stability chamber. Peptides are also analyzed for stability to degradation in solutions of DPPIV and in plasma. Samples are removed periodically for analysis by capillary electrophoresis, mass spectrometry, Edman degradation, ELISA, and assays of peptide activity, which are sensitive methods to detect degradation of peptide. The area of various peaks is summed and the area for peak of the parent peptide is divided by the total peak area. The quotient is the % purity. Since there are impurities present in the fresh peptide, the purity change is normalized by dividing the purity at different time point by the initial purity. For stability to DPPIV and plasma, peptides at 20 pmol/μl were incubated at 37° C. in the presence of 300 pM DPPIV in 100 mM HEPES, pH 7.4. At various timepoints, the reaction (2 μl aliquot) is terminated by addition of 1 μM DPPIV inhibitor and freezing. For MALDI mass spectrometric analysis, T=0 hr, 1 hr, 5 hr, and 24 hr timepoints are evaluated. The results are plotted as percent intact peptide or peptide derivative as compared to degradation products.

DPPIV [2] = target: T1, DPPIV; details: cited from earlier work

T1 sequence (P27487 whole entry, species assumed): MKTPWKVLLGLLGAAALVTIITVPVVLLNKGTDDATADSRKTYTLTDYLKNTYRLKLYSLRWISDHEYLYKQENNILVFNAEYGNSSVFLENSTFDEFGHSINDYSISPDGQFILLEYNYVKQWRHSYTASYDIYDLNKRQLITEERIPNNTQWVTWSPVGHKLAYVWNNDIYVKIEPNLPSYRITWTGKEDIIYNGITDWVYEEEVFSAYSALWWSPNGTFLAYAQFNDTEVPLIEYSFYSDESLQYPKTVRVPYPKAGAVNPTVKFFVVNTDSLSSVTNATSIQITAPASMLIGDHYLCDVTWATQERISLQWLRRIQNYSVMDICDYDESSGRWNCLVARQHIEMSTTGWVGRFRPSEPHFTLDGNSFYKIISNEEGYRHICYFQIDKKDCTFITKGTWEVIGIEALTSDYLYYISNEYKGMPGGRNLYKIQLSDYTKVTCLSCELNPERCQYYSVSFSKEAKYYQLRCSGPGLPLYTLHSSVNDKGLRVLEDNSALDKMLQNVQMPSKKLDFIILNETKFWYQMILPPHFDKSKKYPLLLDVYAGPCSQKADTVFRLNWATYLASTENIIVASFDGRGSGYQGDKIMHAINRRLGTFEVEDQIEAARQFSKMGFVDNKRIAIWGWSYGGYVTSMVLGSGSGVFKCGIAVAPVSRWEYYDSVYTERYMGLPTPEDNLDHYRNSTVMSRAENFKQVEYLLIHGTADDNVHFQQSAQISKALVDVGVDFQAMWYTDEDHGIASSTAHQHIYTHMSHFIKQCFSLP

SMILES	cleavage by DPPIV (DPPIV [1])	cleavage by DPPIV as reported (Zhu, et al., J. Biol. Chem. 278: 22418-22423, 2003) (DPPIV [2])
CC[C@H](C)[C@H](NC(=O)CNC(=O)[C@H](CC(=O)O)NC(=O)[C@H](CO)NC(=O)[C@@H](N)Cc1cnc[nH]1)C(=O)N[C@@H](Cc1ccccc1)C(=O)N[C@H](C(=O)N[C@@H](CC(=O)O)C(=O)N[C@@H](CO)C(=O)N[C@@H](Cc1ccc(O)cc1)C(=O)N[C@@H](CO)C(=O)N[C@@H](CCCNC(=N)N)C(=O)N[C@@H](Cc1ccc(O)cc1)C(=O)N[C@@H](CCCNC(=N)N)C(=O)N[C@@H](CCCCN)C(=O)N[C@@H](CCC(N)=O)C(=O)N[C@@H](CCSC)C(=O)N[C@@H](C)C(=O)N[C@H](C(=O)N[C@@H](CCCCN)C(=O)N[C@@H](CCCCN)C(=O)N[C@@H](Cc1ccc(O)cc1)C(=O)N[C@@H](CC(C)C)C(=O)N[C@@H](C)C(=O)N[C@@H](C)C(=O)N[C@H](C(=O)N[C@@H](CC(C)C)C(N)=O)C(C)C)C(C)C)[C@@H](C)O [PACAP27]	cleaved at longer time points	resistant to cleavage
CC[C@H](C)[C@H](NC(=O)[C@H](CO)NC(=O)[C@H](CC(N)=O)NC(=O)[C@H](CC(C)C)NC(=O)[C@H](Cc1ccc(O)cc1)NC(=O)[C@H](CCCCN)NC(=O)[C@H](CCCCN)NC(=O)[C@@H](NC(=O)[C@H](C)NC(=O)[C@H](CCSC)NC(=O)[C@H](CCC(N)=O)NC(=O)[C@H](CCCCN)NC(=O)[C@H](CCCN=C(N)N)NC(=O)[C@H](CC(C)C)NC(=O)[C@H](CCCN=C(N)N)NC(=O)[C@@H](NC(=O)[C@H](Cc1ccc(O)cc1)NC(=O)[C@H](CC(N)=O)NC(=O)[C@H](CC(=O)O)NC(=O)[C@@H](NC(=O)[C@H](Cc1ccccc1)NC(=O)[C@@H](NC(=O)[C@H](C)NC(=O)[C@H](CC(=O)O)NC(=O)[C@H](CO)NC(=O)[C@@H](N)Cc1c[nH]cn1)C(C)C)[C@@H](C)O)[C@@H](C)O)C(C)C)C(=O)N[C@@H](CC(C)C)C(=O)N[C@@H](CC(N)=O)C(N)=O [VIP]	cleaved at longer time points	resistant to cleavage

From patent US20090280106A1, “Pituitary adenylate cyclase acivating peptide (pacap) receptor (vpac2) agonists and their pharmacological methods of use” (Bayer Pharmaceuticals Corporation, priority 2005, published 2009)
